Data published in patent publication US9205132B2, “Method of lowering mortality” (CORTHERA, INC., priority 2008, dated 2015).
Marks after values point to notes of the source that are not given here.

What was measured:
[1] = tested on: patients with acute heart failure (AHF); test: Patient-reported dyspnea (7-point Likert Scale, 100-mm VAS), Pre-RELAX-AHF trial; format: in vivo, human; conditions: for average improvement in dyspnea VAS over the 5 days: corresponds to AUC to Day 5; for average change in dyspnea VAS over the 14 days: corresponds to AUC to Day 14; for Dyspnea AUC Change from baseline to Day 5 (VAS; mm*hr) / Dyspnea AUC Change from baseline to Day 14 (VAS; mm*hr): mean ± SD
Experimental: (§1) Study Procedures. The study was approved by the relevant ethics committees, institutional review hoards and regulatory authorities, and conducted under the International Conference on Harmonization Good Clinical Practice guidelines. All patients provided informed written consent prior to participation. […] The placebo used for the study was the same solution as the diluent used to prepare the 100 μg/kg/day dose. The randomization ratio was 3:2:2:2:2, respectively, Relaxin (Corthera, San Mateo, Calif.) was manufactured using recombinant techniques and was identical to the naturally-occurring peptide hormone. By protocol, the study drug infusion was to be terminated if the patient's SBP was reduced to <100 mmHg or by >40 mmHg compared to baseline in two successive measurements, 15 minutes apart. Investigators were not prohibited from utilizing any standard medication, thought necessary to treat patients enrolled in the study, including additional vasodilators, following a 4-hour washout period during which time IV vasodilators, IV pure inotropes and meals were withheld, hemodynamic, renal, and clinical responses to 48 hours of study drug infusion were assessed.
(§2) Study Endpoints. […] 4.) Length of initial hospital stay.
Dyspnea Responses. Results are presented via the Visual Analog Score (VAS) and the Likert Score. The VAS score measures a characteristic of attitude that ranges across a continuum of values, for example, the amount of discomfort an AHF patient feels ranges across a continuum from none to an extreme amount of discomfort and/or pain including dyspnea, hypertension, high blood pressure, arrhythmia and reduced renal blood flow. From the patient's perspective this spectrum appears continuous, which the VAS captures. Operationally a VAS is usually a horizontal line, 100 mm in length, anchored by word descriptors at each end (e.g., no discomfort on one end and severe discomfort on the other end). The patients marked on the line the point that they fell represented their perception of their current state. The VAS score is determined by measuring in millimeters from the left hand end of the line to the point that the patient marks (Wewers et al., Research in Nursing and Health 13:227-236, 1990).
The Likert Score is a unidimensional sealing method known in the art, wherein the set of scale items are rated on a numerical (herein 7-point) Disagree-Agree response scale. Each patient was asked to rate each item on the response scale. The final score for the respondents on the scale is the sum of their ratings for all of the items.

[2] = tested on: patients with acute heart failure (AHF); test: In-hospital short-term outcomes (worsening heart failure, length of stay, signs of heart failure, diuretic and nitroglycerin use, body weight), Pre-RELAX-AHF trial; format: in vivo, human; conditions: for Length of Hospital Stay: mean ± SD
Experimental: as §1, §2

[3] = 30 mcg/kg/d IV 48 h, listed as relaxin
[4] = relaxin for 48 hours, AHF patients

Relaxin
percent moderate or marked improvement in dyspnea (Likert), sustained over 14 days ([1]; 30 μg/kg/day, AHF patients with SBP greater than the median, FIG. 7): about 90% | improvement in dyspnea within 6, 12 and 24 hours of administration ([1]; 30 μg/kg/day, FIG. 12): statistically significant improvement in dyspnea | % moderately/markedly better dyspnea at 6, 12 and 24 hrs (Likert) ([1]; 10 mcg/kg/d IV 48 h): 27.5% | average improvement in dyspnea VAS over the 5 days ([1]; 10 mcg/kg/d IV 48 h): 21 mm | average change in dyspnea VAS over the 14 days ([1]; 10 mcg/kg/d IV 48 h): 10 mm | Dyspnea AUC Change from baseline to Day 5 (VAS; mm*hr) ([1]; 10 mcg/kg/d IV 48 h): 2500 ± 2908 mm*hr | Dyspnea AUC Change from baseline to Day 14 (VAS; mm*hr) ([1]; 10 mcg/kg/d IV 48 h): 6366 ± 10078 mm*hr | % moderately/markedly better dyspnea at 6, 12 and 24 hrs (Likert) ([1]; 30 mcg/kg/d IV 48 h): 40.5% | average improvement in dyspnea VAS over the 5 days ([1]; 30 mcg/kg/d IV 48 h): 22 mm | average change in dyspnea VAS over the 14 days ([1]; 30 mcg/kg/d IV 48 h): 25 mm | % moderately/markedly better dyspnea at 6, 12 and 24 hrs (Likert) [1, 3]: 40.5% | Dyspnea AUC Change from baseline to Day 5 (VAS; mm*hr) ([1]; 30 mcg/kg/d IV 48 h): 2567 ± 2898 mm*hr | Dyspnea AUC Change from baseline to Day 14 (VAS; mm*hr) ([1]; 30 mcg/kg/d IV 48 h): 8214 ± 8712 mm*hr | Dyspnea AUC Change from baseline to Day 5 (VAS; mm*hr) [1, 3]: 2567±2898 mm*hr | Dyspnea AUC Change from baseline to Day 14 (VAS; mm*hr) [1, 3]: 8214±8712 mm*hr | % moderately/markedly better dyspnea at 6, 12 and 24 hrs (Likert) ([1]; 100 mcg/kg/d IV 48 h): 13.5% | average improvement in dyspnea VAS over the 5 days ([1]; 100 mcg/kg/d IV 48 h): 21 mm | average change in dyspnea VAS over the 14 days ([1]; 100 mcg/kg/d IV 48 h): 25 mm | Dyspnea AUC Change from baseline to Day 5 (VAS; mm*hr) ([1]; 100 mcg/kg/d IV 48 h): 2486 ± 2865 mm*hr | Dyspnea AUC Change from baseline to Day 14 (VAS; mm*hr) ([1]; 100 mcg/kg/d IV 48 h): 8227 ± 9707 mm*hr | % moderately/markedly better dyspnea at 6, 12 and 24 hrs (Likert) ([1]; 250 mcg/kg/d IV 48 h): 22.4% | average improvement in dyspnea VAS over the 5 days ([1]; 250 mcg/kg/d IV 48 h): 18 mm | average change in dyspnea VAS over the 14 days ([1]; 250 mcg/kg/d IV 48 h): 21 mm | Dyspnea AUC Change from baseline to Day 5 (VAS; mm*hr) ([1]; 250 mcg/kg/d IV 48 h): 2155 ± 2338 mm*hr | Dyspnea AUC Change from baseline to Day 14 (VAS; mm*hr) ([1]; 250 mcg/kg/d IV 48 h): 6856 ± 7923 mm*hr | time at which a beneficial effect on dyspnea was first seen ([1]; AHF patients with CrCl less than the median, FIG. 8): 6 h | time at which a beneficial effect on dyspnea was first seen ([1]; AHF patients with SBP greater than the median, FIG. 7): 6 h | onset of improvement in dyspnea ([1]; all relaxin-treated AHF patients): ≤ 6 h | serum concentration at which relaxin was shown to be fully effective ([1]; see FIG. 6): 3 to 6 ng/mL | % of subjects at Day 5 with: JVP <6 cm ([2]; 10 mcg/kg/d IV 48 h): 72.5% | % of subjects at Day 5 with: No edema ([2]; 10 mcg/kg/d IV 48 h): 55.0% | % of subjects at Day 5 with: No rales ([2]; 10 mcg/kg/d IV 48 h): 65.0% | Worsening HF through Day 5 (%) ([2]; 10 mcg/kg/d IV 48 h): 20.0% | patients receiving intravenous nitroglycerin during the first 24 hours ([2]; 10 mcg/kg/d IV 48 h): 10.0% | Length of Hospital Stay ([2]; 10 mcg/kg/d IV 48 h): 10.9 ± 8.5 days | Median change in body weight from baseline to Day 14 [kg; median (Q1; Q3)] ([2]; 10 mcg/kg/d IV 48 h): -2.0 kg | Median total IV diuretic dose from randomization to Day 5 [mg; median (Q1-Q3)] ([2]; 10 mcg/kg/d IV 48 h): 100 mg | % of subjects at Day 5 with: JVP <6 cm ([2]; 30 mcg/kg/d IV 48 h): 78.6% | % of subjects at Day 5 with: No edema ([2]; 30 mcg/kg/d IV 48 h): 64.3 † % | % of subjects at Day 5 with: No rales ([2]; 30 mcg/kg/d IV 48 h): 76.2% | Worsening HF through Day 5 (%) ([2]; 30 mcg/kg/d IV 48 h): 11.9% | patients receiving intravenous nitroglycerin during the first 24 hours ([2]; 30 mcg/kg/d IV 48 h): 9.5% | Length of Hospital Stay ([2]; 30 mcg/kg/d IV 48 h): 10.2 ± 6.1 days | Median change in body weight from baseline to Day 14 [kg; median (Q1; Q3)] ([2]; 30 mcg/kg/d IV 48 h): -3.0 kg | Median total IV diuretic dose from randomization to Day 5 [mg; median (Q1-Q3)] ([2]; 30 mcg/kg/d IV 48 h): 100 mg | % of subjects at Day 5 with: JVP <6 cm ([2]; 100 mcg/kg/d IV 48 h): 73.0% | % of subjects at Day 5 with: No edema ([2]; 100 mcg/kg/d IV 48 h): 51.4 * % | % of subjects at Day 5 with: No rales ([2]; 100 mcg/kg/d IV 48 h): 70.3% | Worsening HF through Day 5 (%) ([2]; 100 mcg/kg/d IV 48 h): 13.5% | patients receiving intravenous nitroglycerin during the first 24 hours ([2]; 100 mcg/kg/d IV 48 h): 13.5 | Length of Hospital Stay ([2]; 100 mcg/kg/d IV 48 h): 11.1 ± 6.6 days | Median change in body weight from baseline to Day 14 [kg; median (Q1; Q3)] ([2]; 100 mcg/kg/d IV 48 h): -2.5 kg | Median total IV diuretic dose from randomization to Day 5 [mg; median (Q1-Q3)] ([2]; 100 mcg/kg/d IV 48 h): 90 + mg | % of subjects at Day 5 with: JVP <6 cm ([2]; 250 mcg/kg/d IV 48 h): 76.6 + % | % of subjects at Day 5 with: No edema ([2]; 250 mcg/kg/d IV 48 h): 61.2 † % | % of subjects at Day 5 with: No rales ([2]; 250 mcg/kg/d IV 48 h): 71.4% | Worsening HF through Day 5 (%) ([2]; 250 mcg/kg/d IV 48 h): 10.2% | patients receiving intravenous nitroglycerin during the first 24 hours ([2]; 250 mcg/kg/d IV 48 h): 4.1% | Length of Hospital Stay ([2]; 250 mcg/kg/d IV 48 h): 10.6 ± 6.6 days | Median change in body weight from baseline to Day 14 [kg; median (Q1; Q3)] ([2]; 250 mcg/kg/d IV 48 h): -2.0 kg | Median total IV diuretic dose from randomization to Day 5 [mg; median (Q1-Q3)] ([2]; 250 mcg/kg/d IV 48 h): 140 mg | period over which the improvements lasted ([2]; relaxin administered for as little as 48 hours): 14 days | reduction in excessive body weight due to fluid retention, average loss [2, 4]: about 1 kg | shorter hospital stays [2, 4]: ≤ 2.5 days | mean length of stay for the index hospitalization, shorter than for placebo ([2]; relaxin groups 10-250 mcg/kg/d vs placebo): 0.9 to 1.8 days
